ChEMBL document CHEMBL4418497, “Compositions and methods relating to inhibiting serine hyrdoxymethyltransferase 2 activity” (2016)

How the values were obtained:
[1] = molecular target: T1, Serine hydroxymethyltransferase, mitochondrial (Homo sapiens, UniProt P34897); assay: Inhibition of His-tagged human recombinant SHMT2 expressed in Escherichia coli BLR(DE3) assessed as reduction in NADPH level using L-serine, THF and NADP+ incubated for 5 mins by SHMT2-MTHFD coupled reaction based fluorescence assay; details: read-out: pIC50 (converted)
T1 sequence (P34897 whole entry): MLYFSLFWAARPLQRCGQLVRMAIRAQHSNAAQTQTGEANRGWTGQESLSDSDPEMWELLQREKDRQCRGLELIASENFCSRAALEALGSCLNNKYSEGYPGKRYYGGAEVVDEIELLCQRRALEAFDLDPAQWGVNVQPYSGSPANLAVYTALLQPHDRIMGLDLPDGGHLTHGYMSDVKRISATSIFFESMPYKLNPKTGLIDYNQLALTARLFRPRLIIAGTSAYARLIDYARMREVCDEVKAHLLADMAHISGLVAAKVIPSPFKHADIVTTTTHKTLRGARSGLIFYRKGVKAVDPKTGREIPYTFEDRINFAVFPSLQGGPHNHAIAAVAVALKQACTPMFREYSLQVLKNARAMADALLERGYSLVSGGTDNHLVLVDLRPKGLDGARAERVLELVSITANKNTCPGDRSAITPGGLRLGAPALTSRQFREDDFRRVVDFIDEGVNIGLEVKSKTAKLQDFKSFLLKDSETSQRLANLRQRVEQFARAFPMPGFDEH

[2] = molecular target: T2, Serine hydroxymethyltransferase, mitochondrial (Homo sapiens) (UniProt P34897); assay: Inhibition of His-tagged human recombinant SHMT2 expressed in Escherichia coli BLR(DE3) assessed as reduction in NADPH level using L-serine, THF and NADP+ at 6.5 or 26.5 uM incubated for 5 mins by SHMT2-MTHFD coupled reaction based fluorescence assay relative to control
T2 sequence (whole entry): T1 sequence (P34897 whole entry)

Work on `Cc1cc(/C=C/c2ccc3cc(N(C)C)ccc3[n+]2C)c(C)n1-c1ccccc1` yielded an IC50 [1] of 2570 nM and an inhibition [2] of 88.2%.

For `COc1ccc(Cc2nccc3cc(OC)c(OC)cc23)cc1OC` [PAPAVERINE], the IC50 [1] was 2690 nM and the inhibition [2] was 59.2%.

`CN(C)c1cc2c(Nc3ccc4c(cnn4Cc4ccccc4)c3)ncnc2cn1` [GW282974X] gave an IC50 [1] of 2450 nM and an inhibition [2] of 77.5%.

Molecule `CNCC[C@H](Oc1cccc2ccccc12)c1cccs1` [DULOXETINE] has an IC50 [1] of 6920 nM and an inhibition [2] of 83.8%.

In the case of `CCOC(=O)Nc1ccc(NCc2ccc(F)cc2)nc1N` [FLUPIRTINE], the IC50 [1] is reported as 933 nM and the inhibition [2] is reported as 86.1%.

`O=C(Nc1cccc2c(=O)cc(-c3nnn[nH]3)oc12)c1ccc(OCCCCc2ccccc2)cc1` was tested, and the inhibition [2] was 65.5%.

`Cc1[nH]c2ccc(O)cc2c1CCN` gave an inhibition [2] of 59%.

`C=C(C)[C@H]1CC=C(C(=O)O)CC1` gave an inhibition [2] of 70%.

`N#Cc1ccc(S(=O)(=O)Cc2cccc3ccccc23)cc1` gave an inhibition [2] of 54.5%.

Molecule `COc1cc(NC(C)CCCN)c2ncccc2c1` (configuration not stated) [PRIMAQUINE] has an IC50 [1] of 437 nM and an inhibition [2] of 91.9%.

With `Brc1c(NC2=NCCN2)ccc2nccnc12` the inhibition [2] was 79%.

For `COC(=O)[C@@H]1OC(=O)C2OC23[C@]2(C)[C@H](O)CC4C(C)(C)[C@H](OC(C)=O)C[C@H](OC(C)=O)[C@]4(C)[C@H]2CC[C@@]13C` (some centres not stated), the inhibition [2] was 81.8%.

Molecule `CC(C(=O)Nc1cccc(/N=C/c2c(O)ccc3ccccc23)c1)c1ccccc1` (configuration not stated) has an inhibition [2] of 60.1%.

`NC(=O)NC1NC(=O)NC1=O` (configuration not stated) gave an inhibition [2] of 58.2%.

`CCNc1cc(N)[n+](CC)c2[nH]nc(/N=C/c3cc(Cl)cc(Cl)c3O)c12` gave an inhibition [2] of 97%.

With `COc1ccc(OC)c(NC(=S)N2CCN(c3ncc(C(F)(F)F)cc3Cl)CC2)c1` the inhibition [2] was 60.2%.
